# Test results reported in the supplement of paper PMC11208160.
# Test: recombinant UMI read abundance after kanamycin selection (control-corrected) (log10(CPM+1)); higher = more efficient recombination; extreme values may be limits of the assay; sequences stand for … in AGTGCAGAGAAAATCGGCCAGTTTTCTCTGCCTGCAGTCCGCATGCCGTGGGACCCCTTGGGTTCTAACCTGTTGCCTAGATTTATGCAGCGGACTGCCTTTCTCCCAAAGTGATAAACCGG…AGGTTGGTTTCACT; site = the 11-nt donor
# Method in brief: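 Under IPTG (0.07 mM) plus kanamycin, or without selection, Escherichia coli carrying a UMI-tagged donor and donor-binding-loop pair library and a target plasmid for the IS621 bridge recombinase were plated in two replicates. Recombinant UMIs were PCR-amplified across the donor–target junction and sequenced. Counts were converted to CPM, averaged over replicates, scaled by control-derived factors and reported as log10(CPM+1).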
# 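Note: IS621 bridge recombinase in Escherichia coli cells against a fixed T5 target plasmid.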
row,Sequence,recombinant UMI read abundance (log10)
1,TGGAAGACATGGACCGGTTTTCCCGGTAATCCGTATTTGTA (site TGGAAGACTTA),2.36
2,TGGAAGTCATGGACCGGTTTTCCCGGTAATCCGTATTTGGC (site TGGAAGTCTGC),2.31
3,TGGAATACATGGACCGGTTTTCCCGGTAATCCGTATTTGTG (site TGGAATACTCA),1.12
4,TGGAATCCATGGACCGGTTTTCCCGGTAATCCGTATTTGGT (site CGGAATCCTAA),0
5,TGGAATCCATGGACCGGTTTTCCCGGTAATCCGTATTTGGT (site TGGAATCCTAC),0
6,TGGACTACATGGACCGGTTTTCCCGGTAATCCGTATTTGGA (site TGGACTACTTC),0.786
7,TGGACTTCATGGACCGGTTTTCCCGGTAATCCGTATTTGTG (site TGGACTTCTCA),0.248
8,TGGATTCCATGGACCGGTTTTCCCGGTAATCCGTATTTGAT (site TGGATTCCTAT),0
9,TGGCAGGCATGGACCGGTTTTCCCGGTAATCCGTATTTGGC (site TGGCAGGCTGC),0.909
10,TGGCAGGCATGGACCGGTTTTCCCGGTAATCCGTATTTGGC (site TGGCCGGCTGC),0
11,TGGCAGGCATGGACCGGTTTTCCCGGTAATCCGTATTTGGC (site TGGCGGGCTGC),0
12,TGGCAGGCATGGACCGGTTTTCCCGGTAATCCGTATTTGGC (site TGGCTGGCTGC),0
13,TGGCCGGCATGGACCGGTTTTCCCGGTAATCCGTATTTGCC (site TGGCCGGCTGA),0.00339
14,TGGCCGGCATGGACCGGTTTTCCCGGTAATCCGTATTTGCC (site TGGCCGGCTGC),0
15,TGGCCGGCATGGACCGGTTTTCCCGGTAATCCGTATTTGCC (site TGGCCGGCTGG),1.05
16,TGGCCGGCATGGACCGGTTTTCCCGGTAATCCGTATTTGCC (site TGGCCGGCTGT),0.00896
17,TGGCCGTCATGGACCGGTTTTCCCGGTAATCCGTATTTGGC (site TGGCCGACTGC),0
18,TGGCCGTCATGGACCGGTTTTCCCGGTAATCCGTATTTGGC (site TGGCCGCCTGC),0
19,TGGCCGTCATGGACCGGTTTTCCCGGTAATCCGTATTTGGC (site TGGCCGGCTGC),0
20,TGGCCGTCATGGACCGGTTTTCCCGGTAATCCGTATTTGGC (site TGGCCGTCTGC),0.431
21,TGGCGAGCATGGACCGGTTTTCCCGGTAATCCGTATTTGTT (site TGGCGAGCTAA),1.04
22,TGGCGGACATGGACCGGTTTTCCCGGTAATCCGTATTTGCA (site TGGCGGACTTG),1.67
23,TGGCTTACATGGACCGGTTTTCCCGGTAATCCGTATTTGGC (site TGGCTTACTGC),0.536
24,TGGGAATCATGGACCGGTTTTCCCGGTAATCCGTATTTGCG (site TAGGAATCTCG),1.35
25,TGGGAATCATGGACCGGTTTTCCCGGTAATCCGTATTTGCG (site TCGGAATCTCG),1.85

row,Sequence,recombinant UMI read abundance (log10)
1,TGGGAATCATGGACCGGTTTTCCCGGTAATCCGTATTTGCG (site TGGGAATCTCG),2.5
2,TGGGAATCATGGACCGGTTTTCCCGGTAATCCGTATTTGCG (site TTGGAATCTCG),0.459
3,TGGGAGACATGGACCGGTTTTCCCGGTAATCCGTATTTGCA (site AGGAAGACTTG),0.261
4,TGGGAGACATGGACCGGTTTTCCCGGTAATCCGTATTTGCA (site TGGGAGACTTG),1.7
5,TGGGAGGCATGGACCGGTTTTCCCGGTAATCCGTATTTGAC (site TGGGAGGCTGT),1.46
6,TGGGTGCCATGGACCGGTTTTCCCGGTAATCCGTATTTGAC (site TGGGTGCCTGT),0
7,TGGTAGCCATGGACCGGTTTTCCCGGTAATCCGTATTTGTT (site TGGTAGCCTAA),0.256
8,TGGTCATCATGGACCGGTTTTCCCGGTAATCCGTATTTGAG (site TGGTCATCTCT),0.0288
9,TGGTGCCCATGGACCGGTTTTCCCGGTAATCCGTATTTGGT (site TGGTGCCCTAC),0.00779
10,TGGTGTCCATGGACCGGTTTTCCCGGTAATCCGTATTTGAG (site TGGTGTCCTCT),0.0312
11,TGGTTATCATGGACCGGTTTTCCCGGTAATCCGTATTTGTC (site TGGTTATCTGA),0.968
12,TGTAAATCATGGACCGGTTTTCCCGGTAATCCGTATTTGTT (site TGTAAATCTAA),1.13
13,TGTAACGCATGGACCGGTTTTCCCGGTAATCCGTATTTGTG (site TGTAACGCTCA),0.0113
14,TGTACAACATGGACCGGTTTTCCCGGTAATCCGTATTTGAC (site TGTACAACTGT),0.315
15,TGTACAACATGGACCGGTTTTCCCGGTAATCCGTATTTGAC (site TGTACACCTGT),0
16,TGTACAACATGGACCGGTTTTCCCGGTAATCCGTATTTGAC (site TGTACAGCTGT),0
17,TGTACAACATGGACCGGTTTTCCCGGTAATCCGTATTTGAC (site TGTACATCTGT),0.295
18,TGTACACCATGGACCGGTTTTCCCGGTAATCCGTATTTGTC (site TGTACACCTGA),0
19,TGTACACCATGGACCGGTTTTCCCGGTAATCCGTATTTGTC (site TGTACACCTGC),0
20,TGTACACCATGGACCGGTTTTCCCGGTAATCCGTATTTGTC (site TGTACACCTGG),0
21,TGTACACCATGGACCGGTTTTCCCGGTAATCCGTATTTGTC (site TGTACACCTGT),0
22,TGTACAGCATGGACCGGTTTTCCCGGTAATCCGTATTTGAC (site TGTACAACTGT),0
23,TGTACAGCATGGACCGGTTTTCCCGGTAATCCGTATTTGAC (site TGTACACCTGT),0
24,TGTACAGCATGGACCGGTTTTCCCGGTAATCCGTATTTGAC (site TGTACAGCTGT),1.75
25,TGTACAGCATGGACCGGTTTTCCCGGTAATCCGTATTTGAC (site TGTACATCTGT),0.647

row,Sequence,recombinant UMI read abundance (log10)
1,TGTACATCATGGACCGGTTTTCCCGGTAATCCGTATTTGAC (site TGTACAACTGT),0
2,TGTACATCATGGACCGGTTTTCCCGGTAATCCGTATTTGAC (site TGTACACCTGT),0
3,TGTACATCATGGACCGGTTTTCCCGGTAATCCGTATTTGAC (site TGTACAGCTGT),0
4,TGTACATCATGGACCGGTTTTCCCGGTAATCCGTATTTGAC (site TGTACATCTGT),0
5,TGTAGCTCATGGACCGGTTTTCCCGGTAATCCGTATTTGAA (site TGTAGCTCTTT),0.301
6,TGTAGCTCATGGACCGGTTTTCCCGGTAATCCGTATTTGGG (site TGTAGCTCTCC),0.0269
7,TGTAGGACATGGACCGGTTTTCCCGGTAATCCGTATTTGAA (site TGTAGGACTTT),0.373
8,TGTCAAACATGGACCGGTTTTCCCGGTAATCCGTATTTGGG (site TGTCAAACTCC),0.00984
9,TGTCAGACATGGACCGGTTTTCCCGGTAATCCGTATTTGTG (site TGTCAGACTCA),0.0321
10,TGTCCTACATGGACCGGTTTTCCCGGTAATCCGTATTTGGA (site TGTCCTACTTC),0.0197
11,TGTCCTGCATGGACCGGTTTTCCCGGTAATCCGTATTTGTT (site TGTCCTGCTAA),0.011
12,TGTCGCGCATGGACCGGTTTTCCCGGTAATCCGTATTTGCA (site TGTCGCGCTTG),0.897
13,TGTCGGACATGGACCGGTTTTCCCGGTAATCCGTATTTGCG (site TGTCGGACTCG),1.4
14,TGTGCACCATGGACCGGTTTTCCCGGTAATCCGTATTTGAC (site TGTACACCTGT),0
15,TGTGCACCATGGACCGGTTTTCCCGGTAATCCGTATTTGAC (site TGTCCACCTGT),0.0317
16,TGTGCACCATGGACCGGTTTTCCCGGTAATCCGTATTTGAC (site TGTGCACCTGT),0
17,TGTGCACCATGGACCGGTTTTCCCGGTAATCCGTATTTGAC (site TGTTCACCTGT),0
18,TGTGCCCCATGGACCGGTTTTCCCGGTAATCCGTATTTGTA (site TGTACCCCTTA),0.126
19,TGTGCCCCATGGACCGGTTTTCCCGGTAATCCGTATTTGTA (site TGTCCCCCTTA),0.0113
20,TGTGCCCCATGGACCGGTTTTCCCGGTAATCCGTATTTGTA (site TGTGCCCCTTA),0.0922
21,TGTGCCCCATGGACCGGTTTTCCCGGTAATCCGTATTTGTA (site TGTTCCCCTTA),0.0156
22,TGTGCTGCATGGACCGGTTTTCCCGGTAATCCGTATTTGAA (site TGTGCTGCTTT),0.011
23,TGTGGAACATGGACCGGTTTTCCCGGTAATCCGTATTTGTT (site AGTGGAACTAA),0.0127
24,TGTGGAACATGGACCGGTTTTCCCGGTAATCCGTATTTGTT (site CGTGGAACTAA),0.0659
25,TGTGGAACATGGACCGGTTTTCCCGGTAATCCGTATTTGTT (site GGTGGAACTAA),0
